A short description of data set [1]: Blood Brain Barrier penetration (plasma and brain concentration). It counts as in vivo.
Data set [2] in a line: Stability study of drug substance in sealed pouches. The class given is physicochemical. To be noted: ambient temperature and 40° C.-45° C. (no humidity control), 3-month period, polyethylene pouches in aluminum pouch. On the procedure: A stability study has been completed on Compound P3.1. Samples of Compound P3.1 were aliquoted into double-walled polyethylene pouches, which were tied off and then heat-sealed in an aluminum pouch. Samples were stored at ambient temperature and at 40° C.-45° C. (no humidity control) with testing performed over a 3-month period.

`O=c1[nH]c(CN2CC(Oc3cccnc3)C2)cn2c(C3CCOCC3)ncc12` [Compound (P2)]: the “Brain concentration after 120 minutes” value in data set [1] (brain, 120 min) is recorded as “detection limit”.
Turning to `C[C@@H]1CN(Cc2ncccn2)C[C@H]1c1cn2c(C3CCOCC3)ncc2c(=O)[nH]1` [Compound P3.1, 6-[(3S,4S)-4-methyl-1-(pyrimidin-2-ylmethyl)pyrrolidin-3-yl]-3-tetrahydropyran-4-yl-7H-imidazo[1,5-a]pyrazin-8-one], the Kp at 0.5 h in data set [1] (brain/plasma, 30 min, read-out: Brain/Plasma ratio after 30 minutes) came out at 0.04. Moreover, the Kp at 2 h in data set [1] (brain/plasma, 120 min, read-out: Brain/Plasma ratio after 120 minutes) was found to be 0.03. Also, in data set [2], the “Changes to appearance or purity of the material” value was “no changes to appearance or purity”.

Values taken from patent US11370795B2, “Process for the synthesis of 6-[(3S,4S)-4-methyl-1-(pyrimidin-2-ylmethyl)pyrrolidin-3-yl]-3-tetrahydropyran-4-yl-7H-imidazo[1,5-a]pyrazin-8-one” (Imara Inc., priority 2017, dated 2022).
